For 18 compounds, EC50 results are on record in US12440496B2, “Natriuretic peptide receptor a agonists useful for the treatment of cardiometabolic diseases, kidney disease and diabetes” (Merck Sharp & Dohme LLC, priority 2019, dated 2025).

The structures appear in SMILES notation.

One may read the EC50 as the concentration needed to bring the measured effect to its halfway point. Low readings indicate a more potent agent, high ones a less potent agent.

This assay deals with T1, hNPRA (Homo sapiens, UniProt P16066).
T1 construct: expressed in transfected cells
T1 sequence (P16066 33-1061): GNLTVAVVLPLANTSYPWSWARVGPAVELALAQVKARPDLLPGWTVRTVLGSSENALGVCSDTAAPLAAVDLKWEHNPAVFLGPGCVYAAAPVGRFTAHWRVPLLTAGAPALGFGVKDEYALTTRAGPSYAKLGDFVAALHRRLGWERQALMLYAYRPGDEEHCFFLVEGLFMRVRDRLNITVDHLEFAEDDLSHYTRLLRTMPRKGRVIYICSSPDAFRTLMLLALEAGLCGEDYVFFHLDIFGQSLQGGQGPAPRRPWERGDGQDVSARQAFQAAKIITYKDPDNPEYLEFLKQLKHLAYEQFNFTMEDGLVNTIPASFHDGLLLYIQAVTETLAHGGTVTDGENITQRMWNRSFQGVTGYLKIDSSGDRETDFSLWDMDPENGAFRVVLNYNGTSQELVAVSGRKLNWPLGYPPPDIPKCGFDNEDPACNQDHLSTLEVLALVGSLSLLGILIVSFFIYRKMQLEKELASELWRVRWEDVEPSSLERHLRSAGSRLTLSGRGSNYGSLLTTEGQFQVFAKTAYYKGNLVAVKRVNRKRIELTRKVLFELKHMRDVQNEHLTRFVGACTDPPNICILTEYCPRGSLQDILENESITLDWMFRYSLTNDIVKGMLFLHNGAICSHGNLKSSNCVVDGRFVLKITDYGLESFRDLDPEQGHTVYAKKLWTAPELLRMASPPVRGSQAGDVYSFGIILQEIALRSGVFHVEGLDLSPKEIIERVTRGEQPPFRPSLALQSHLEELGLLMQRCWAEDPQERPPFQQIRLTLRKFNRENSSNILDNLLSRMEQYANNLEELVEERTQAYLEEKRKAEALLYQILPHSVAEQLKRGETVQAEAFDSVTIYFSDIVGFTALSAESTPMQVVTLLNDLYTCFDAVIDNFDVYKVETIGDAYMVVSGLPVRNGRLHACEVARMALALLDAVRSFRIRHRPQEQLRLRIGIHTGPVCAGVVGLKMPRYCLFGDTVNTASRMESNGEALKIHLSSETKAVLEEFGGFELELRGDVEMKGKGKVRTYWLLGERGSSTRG
Put plainly: NPRA Functional Cell Assay (cGMP HTRF, NPRA HEK JumpIn stable cells). The assay is classed as cell-based. The settings on record: cGMP production, 1 hour at 37° C., 10-point dose response. Put shortly:
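cGMP HTRF read-out after 1 hour compound treatment at 37° C. of human NPRA-expressing HEK JumpIn cells, 1500 cells/well, in buffer with phosphodiesterase inhibitors IBMX and RO20 (100 uM each). Signal converted to [cGMP] by calibration curve; EC50s fitted by 4-parameter logistic; 50 nM h-ANP as positive response.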
`CC(C)(C)[C@H]1CCc2nc3sc(C(=O)N[C@H](CCN4CCC(O)CC4)c4cccc(C(=O)N[C@H]5CNC[C@@H]5O)c4)nc3cc2C1` (racemic) [Example 137, rac-(7S)-7-tert-butyl-N-[rac-(1R)-3-(4-hydroxy-1-piperidyl)-1-[3-[[rac-(3S,4S)-4-hydroxypyrrolidin-3-yl]carbamoyl]phenyl]propyl]-5,6,7,8-tetrahydrothiazolo[5,4-b]quinoline-2-carboxamide] gave an EC50 of 176 nM.
For `COC[C@@H]1CCCN1CC[C@@H](NC(=O)c1cc2cc3c(nc2s1)CC[C@H](C(C)(C)C)C3)c1ccc(-c2ccc(=O)[nH]c2)cc1` (racemic) [Example 43, rac-(6S)-6-tert-butyl-N-[rac-(1R)-1-[4-(6-oxo-1H-pyridin-3-yl)phenyl]-3-[rac-(2S)-2-(methoxymethyl)pyrrolidin-1-yl]propyl]-5,6,7,8-tetrahydrothieno[2,3-b]quinoline-2-carboxamide] the value was 663 nM.
For `CC(C)(C)[C@H]1CCc2nc3sc(C(=O)N[C@H](CCN4CCC(O)CC4)c4cccc(N5CCOC5=O)c4)nc3cc2C1` (racemic) [Example 120, rac-(7S)-7-tert-butyl-N-[rac-(1R)-3-(4-hydroxypiperidin-1-ium-1-yl)-1-[3-(2-oxooxazolidin-3-yl)phenyl]propyl]-5,6,7,8-tetrahydrothiazolo[5,4-b] quinoline-2-carboxamide; 2,2,2-trifluoroacetate] the value was 1670 nM; for `CC(C)(C)[C@H]1CCc2nc3sc(C(=O)N[C@H](CCN4CCC(O)CC4)c4ccc(-c5ccnc(N)c5)cc4)nc3cc2C1` (racemic) [Example 168, rac-(7S)-7-tert-butyl-N-[rac-(1R)-1-[4-(2-amino-4-pyridyl)phenyl]-3-(4-hydroxy-1-piperidyl)propyl]-5,6,7,8-tetrahydrothiazolo[5,4-b]quinoline-2-carboxamide], 773 nM; for `CC(C)(C)[C@H]1CCc2nc3sc(C(=O)N[C@H](CCN4CCC(O)CC4)c4ccc(-c5ccnnc5)cc4)nc3cc2C1` (racemic) [Example 162, rac-(7S)-7-tert-butyl-N-[rac-(1R)-3-(4-hydroxy-1-piperidyl)-1-(4-pyridazin-4-ylphenyl)propyl]-5,6,7,8-tetrahydrothiazolo[5,4-b]quinoline-2-carboxamide], 198 nM.
For `CC(C)[C@]1(F)CCc2nc3sc(C(=O)N[C@H](CCN4CCC(C(=O)O)CC4)c4ccc(-c5ccnnc5)nc4)nc3cc2C1` [Example 270, 1-((R)-3-((S)-7-fluoro-7-isopropyl-5,6,7,8-tetrahydrothiazolo[5,4-b]quinoline-2-carboxamido)-3-(6-(pyridazin-4-yl)pyridin-3-yl)propyl)piperidine-4-carboxylic acid] the value was 1210 nM; for `CN1CC[C@@H](NC(=O)c2cccc([C@@H](CCN3CCC(O)CC3)NC(=O)c3nc4cc5c(nc4s3)CC[C@H](C(C)(C)C)C5)c2)C1` (racemic) [Example 134, rac-(7S)-7-tert-butyl-N-[rac-(1R)-3-(4-hydroxy-1-piperidyl)-1-[3-[[rac-(3R)-1-methylpyrrolidin-3-yl]carbamoyl]phenyl]propyl]-5,6,7,8-tetrahydrothiazolo[5,4-b]quinoline-2-carboxamide], 126 nM; for `CC(C)(C)[C@H]1CCc2nc3sc(C(=O)N[C@H](CCN4CCC(O)CC4)c4ccc(-n5cncn5)cc4)nc3cc2C1` [Example 84, (7S)-7-tert-butyl-N-[(1R)-3-(4-hydroxy-piperidin-1-ium-1-yl)-1-[4-(1,2,4-triazol-1-yl)phenyl]propyl]-5,6,7,8-tetra-hydrothiazolo[5,4-b] quinoline-2-carboxamide; 2,2,2-trifluoro-acetate], 802 nM.
Take `CN1C(=O)OCC12CN(C(=O)c1cccc([C@@H](CCN3CCC(O)CC3)NC(=O)c3nc4cc5c(nc4s3)CC[C@H](C(C)(C)C)C5)c1)C2` (racemic) [Example 144, rac-(7S)-7-tert-butyl-N-[rac-(1R)-3-(4-hydroxy-1-piperidyl)-1-[3-(5-methyl-6-oxo-7-oxa-2,5-diazaspiro[3.4]octane-2-carbonyl)phenyl]propyl]-5,6,7,8-tetrahydrothiazolo[5,4-b]quinoline-2-carboxamide]: the response was half-maximal at 462 nM (EC50).
The figure for `CN1CC(NC(=O)c2cccc([C@@H](CCN3CCC(CCO)CC3)NC(=O)c3nc4cc5c(nc4s3)CC[C@H](C(C)(C)C)C5)c2)C1` (racemic) [Example 102, rac-(7S)-7-tert-butyl-N-[rac-(1R)-3-[4-(2-hydroxyethyl)-1-piperidyl]-1-[3-[(1-methylazetidin-1-ium-3-yl)carbamoyl]phenyl]propyl]-5,6,7,8-tetrahydrothiazolo[5,4-b] quinoline-2-carboxamide; 2,2,2-trifluoroacetate] is 158 nM; for `CC(C)(C)[C@H]1CCc2nc3sc(C(=O)NC(CCN4CCOCC4)c4ccccc4)cc3cc2C1` (stereo partly drawn) [Example 243, (6S)-6-tert-butyl-N-(3-morpholin-4-yl-1-phenylpropyl)-5,6,7,8-tetrahydrothieno[2,3-b]quinoline-2-carboxamide] it is 6320 nM; for `CN1CC(CNC(=O)c2cccc([C@@H](CCN3CCC(O)CC3)NC(=O)c3nc4cc5c(nc4s3)CC[C@H](C(C)(C)C)C5)c2)CC1=O` (mixture of isomers) [Example 159, rac-(7S)-7-tert-butyl-N-[rac-(1R)-3-(4-hydroxy-1-piperidyl)-1-[3-[(1-methyl-5-oxo-pyrrolidin-3-yl)methylcarbamoyl]phenyl]propyl]-5,6,7,8-tetrahydrothiazolo[5,4-b]quinoline-2-carboxamide] it is 901 nM.
The figure for `CN1CCC(NC(=O)c2cccc([C@@H](CCN3CCC(C(=O)O)CC3)NC(=O)c3nc4cc5c(nc4s3)CC[C@H](C(C)(C)C)C5)c2)C1` (mixture of isomers) [Example 121, 1-[rac-(3R)-3-[3-[(1-methylpyrrolidin-3-yl)carbamoyl]phenyl]-3-[[rac-(7S)-7-tert-butyl-5,6,7,8-tetrahydrothiazolo [5,4-b]quinoline-2-carbonyl]amino]propyl]piperidine-4-carboxylic acid] is 224 nM.
`COCCN1CCN(CC[C@@H](NC(=O)c2cc3cc4c(nc3s2)CC[C@H](C(C)(C)C)C4)c2ccc(-c3ccc(=O)[nH]c3)cc2)CC1` (racemic) [Example 66, rac-(6S)-6-tert-butyl-N-[rac-(1R)-3-[4-(2-methoxyethyl)piperazin-1-yl]-1-[4-(6-oxo-1H-pyridin-3-yl)phenyl]propyl]-5,6,7,8-tetrahydrothieno[2,3-b]quinoline-2-carboxamide] yielded an EC50 of 1330 nM.
For the compound `CC(C)(C)[C@H]1CCc2nc3sc(C(=O)N[C@H](CCNC4CNC(=O)C4)c4ccc(-c5ccc(=O)[nH]c5)cc4)cc3cc2C1` (mixture of isomers) [Example 57, (5-oxopyrrolidin-3-yl)-[rac-(3R)-3-[4-(6-oxo-1H-pyridin-3-yl)phenyl]-3-[[rac-(6S)-6-tert-butyl-5,6,7,8-tetrahydrothieno[2,3-b]quinoline-2-carbonyl]amino]propyl] ammonium;formate], the response was half-maximal at 889 nM (EC50).
The figure for `CC(C)(C)[C@H]1CCc2nc3sc(C(=O)N[C@H](CCN4CCC(O)CC4)c4ccc(-c5ccc(=O)[nH]c5)nc4)nc3cc2C1` (racemic) [Example 195, rac-(7S)-7-tert-butyl-N-[rac-(1R)-3-(4-hydroxy-1-piperidyl)-1-[6-(6-oxo-1H-pyridin-3-yl)-3-pyridyl]propyl]-5,6,7,8-tetrahydrothiazolo[5,4-b]quinoline-2-carboxamide] is 126 nM; for `CC(C)(C)[C@H]1CCc2nc3sc(C(=O)N[C@H](CCN4CCC(O)CC4)c4ccc(-c5cnoc5)cc4)nc3cc2C1` (racemic) [Example 176, rac-(7S)-7-tert-butyl-N-[rac-(1R)-3-(4-hydroxypiperidin-1-ium-1-yl)-1-(4-isoxazol-4-ylphenyl)propyl]-5,6,7,8-tetrahydrothiazolo[5,4-b]quinoline-2-carboxamide; 2,2,2-trifluoroacetate] it is 1030 nM; for `CN(CCC(=O)O)CC[C@@H](NC(=O)c1nc2cc3c(nc2s1)CC[C@H](C(C)(C)C)C3)c1cccc(C(=O)NC2CN(C)C2)c1` (racemic) [Example 111, 3-[methyl-[rac-(3R)-3-[3-[(1-methylazetidin-1-ium-3-yl)carbamoyl]phenyl]-3-[[rac-(7S)-7-tert-butyl-5,6,7,8-tetrahydrothiazolo[5,4-b]quinoline-2-carbonyl]amino]propyl]amino] propanoic acid; 2,2,2-trifluoroacetate] it is 645 nM.
